What is called melting point is the temperature, or range, at which the solid turns liquid.

The compound `CC(NC(=O)OCc1ccccc1)C(=O)O` (racemic) displayed a melting point of 112 to 113 °C. `O=C(c1ccccc1)c1ccc(Cl)c([N+](=O)[O-])c1` showed a melting point of 105 °C. On to `O=C(c1ccccc1)C(F)(F)F`, for which the melting point is -40 °C. The value for `COc1ccc(/C=C2\CN(S(=O)(=O)c3ccc(C)cc3)c3ccccc3N2S(=O)(=O)c2ccc(C)cc2)cc1` was 152 °C. In the case of `COC(=O)C1C(O)CCC2CN3CCc4c([nH]c5ccccc45)C3CC21` (configuration not stated) it was 234 °C; in that of `COc1ccc(C(=O)C=CC(=O)O)cc1`, 139 °C; in that of `CC(Cc1ccccc1)NCCC(c1ccccc1)c1ccccc1` (configuration not stated), 38 °C. `Sc1nnc(-c2ccco2)n1-c1ccc(OCc2ccccc2)cc1` came in with a melting point of 236 to 238 °C. With `N[C@@H](CCC(=O)OCc1ccccc1)C(=O)O`, the melting point was found to be 169 °C. In turn, `Cn1c(=O)c(C2=NNC(=O)C2=CNc2ccccn2)c(O)c2ccccc21` displayed a melting point of 235 °C. The value for `CCOC(=O)c1cc(-c2ccco2)n(C)n1` was 63 to 64 °C; that for `CC(=Cc1ccc(C(=O)O)cc1)c1ccc2c(c1)C(C)(C)CCC2(C)C` was 240 °C; that for `O=C(O)c1cc(O)[nH]c(=O)c1` was 300 °C.

As for `CCCc1c(NCC)ccc(C(C)=O)c1O`, the melting point lay within 45 to 48 °C. Turning to `CC(C)(C)OC(=O)NCCC(N)=S`, the melting point lay within 109 to 112 °C. `O=C(Cl)c1ccc2c(c1)CCO2` registered a melting point of 49 to 51 °C. The value for `Cc1cc([N+](=O)[O-])cc(Cl)c1N` was 175 °C; that for `O=C1c2ccccc2-c2ccc3c4c(ccc1c24)-c1ccccc1C3=O` was 385 °C; that for `S=c1nnc(-c2ccccc2)c(Nc2ccccc2Cl)[nH]1` was 314 °C. In the case of `OCCN1CCN(c2ncc(C(F)(F)F)cc2Cl)CC1`, the melting point was 62 to 66 °C. With `O=C1CCC2(O)C3Cc4ccc(O)c5c4C2(CCN3CC2CC2)C1O5` (configuration not stated), the melting point stood at 169 °C.

Compound `COC(=O)c1sc(SC)c(C#N)c1N` gave a melting point of 207 °C. On to `CC1CCCCC1(C)C` (configuration not stated), for which the melting point was -29 °C. With `Fc1cc(CBr)ccc1Cl`, the melting point came to 32 °C. On to `OC(c1ccc(Cl)cc1)c1cc2ccccc2o1` (configuration not stated), for which the melting point is 48.5 °C. The value for `O=C(c1ccc(O)cc1)c1ccc(Cl)cc1` was 180 °C. For the compound `Ic1cccs1`, the melting point was -40 °C. `CCN(CC)CCOC(=O)c1ccc(N)cc1` came in with a melting point of 61 °C.

In the case of `NNc1cnn(-c2ccccc2)c(=O)c1Cl`, the melting point was found to be 170 °C. In the case of `Nc1c(O)cccc1[N+](=O)[O-]` it was 216 °C; in that of `Nc1ncnc2c1ncn2C1OC2COP(=O)(O)OC2C1O` (configuration not stated), 260 °C.

Compound `N#CC1(OC(=O)c2ccccc2)Cc2ccccc21` (configuration not stated) had a melting point of 112 °C. The value for `NC(Cc1ccc(Cl)cc1)C(=O)O` (configuration not stated) was 260 °C; that for `Cc1cc(C)c(C2(C)CC(C(=NO)c3cc4ccccc4o3)C2)c(C)c1` (configuration not stated) was 189 to 190 °C; that for `BrC(Br)(Br)c1ccc2cc3ccc(C(Br)(Br)Br)nc3cc2n1` was 190 °C.

Compound `Cn1c(/C(C#N)=C/c2ccc(F)cc2)nc2ccccc21` gave a melting point of 133 °C. The value for `CC(C)(C)S(=O)(=O)c1cnc(N2CCOCC2)nc1N` was 196 to 198 °C; that for `N#Cc1nc[nH]c1C#N` was 175 °C; that for `Cc1nc(C(N)=S)cs1` was 201 to 203 °C.

For `FCOC(C(F)(F)F)C(F)(F)F`, the melting point is less than 25 °C. For the compound `CN(C)c1ccc(N=C(C#N)c2ccc(C(C#N)=Nc3ccc(N(C)C)cc3)cc2)cc1`, the melting point came to 240 °C. `O=C(O)C=Cc1cc([N+](=O)[O-])ccc1Sc1ccc(Cl)cc1`: the melting point fell in the range of 212 to 215 °C. On to `C=C1C(=O)C23C(OC(C)=O)CC4C(C)(C)CCC(OC(C)=O)C4(C)C2C(OC(C)=O)CC1(O)C3OC(C)=O` (configuration not stated), for which the melting point amounted to 278 °C.

As to `FC(F)(F)c1nn(CN2CCN(Cn3nc(C(F)(F)F)n(N=Cc4cccs4)c3=S)CC2)c(=S)n1N=Cc1cccs1`, the melting point came to 187 °C.

Consider `O=C(O)c1cc(I)c(O)c(I)c1`, for which the melting point turned out to be 237 °C. For `CC(=O)CCc1oc2ccc(Cl)cc2c1-c1ccc(C)o1`, the melting point is 75 °C. Consider `Cc1ccc(NN=C2SC(=N)NC2=O)cc1`, for which the melting point was found to be 265 °C. As for `NC(=O)c1nccnc1C(N)=O`, the melting point was determined as 268 °C. As to `C=CCOc1cccc(O)c1C(C)=O`, the melting point lay in the range of 45.5 to 46.5 °C. `CCCCC#Cc1cncc(C(=O)NN)c1` yielded a melting point of 158 to 161 °C. `O=C(CCc1ccccc1)CCc1ccccc1`: the melting point worked out at 13.5 °C. `CSc1ccc(CO)cc1`: the melting point amounted to 42 °C. The value for `CCOC(=O)Cc1csc(N)n1` was 91 to 95 °C. In the case of `c1csc(SSc2cccs2)c1`, the melting point came out at 55 °C. The value for `N/N=C(/C(=O)c1cccc2ccccc12)c1ccccc1` was 152 °C; that for `CC1=CC(=O)CC1` was 3 to 5 °C; that for `S=C(NN=Cc1c(-c2ccc(Cl)cc2)[nH]c2ccccc12)Nc1ccccc1` was 211 to 212 °C.

With `CC1(C)SC2C(NC(=O)COc3ccccc3)C(=O)N2C1C(=O)O` (configuration not stated), the melting point was 124 °C. In the case of `CCOP(=S)(OCC)SCn1c(=O)oc2cc(Cl)ccc21` it was 47.8 °C. Take `C#CC1(O)c2ccccc2-c2ccccc21`: the melting point turned out to be 110 °C. `Cc1cc2nc(N)sc2cc1C`: the melting point was 185 to 189 °C. The compound `O=C(Oc1c(Cl)cc(Cl)cc1Cl)C(=O)Oc1c(Cl)cc(Cl)cc1Cl` registered a melting point of 188 to 192 °C. In turn, `CCOCCN(Cc1ccc(CN(CCOCC)C(=O)C(Cl)Cl)cc1)C(=O)C(Cl)Cl` displayed a melting point of 140 °C.

As to `CN1CSCSC1`, the melting point is 65 °C. In the case of `CCC(CO)(CO)COCC(CC)(CO)CO`, the melting point came to 110 °C. In the case of `CCC1CC(OC(=O)c2ccc([N+](=O)[O-])cc2)CC(C)(C)N1O` (configuration not stated), the melting point is 145 to 147 °C. In the case of `c1ccc2cc(Nc3ccc(Nc4ccc5ccccc5c4)cc3)ccc2c1`, the melting point was 235 °C. The compound `CC1CC2=CC(=O)CCC2(C)C2CCC3(C)C(CCC3(C)O)C12` (configuration not stated) had a melting point of 164 °C. Regarding `FC(F)(F)c1ccc2c(c1)NCCC2`, the melting point was determined as 32 °C. In the case of `NC(=O)[C@@H]1CCCN1`, the melting point is 97 to 102 °C. `Cc1nn(-c2ccccc2)c(C)c1C(=O)O`: the melting point was 199 to 201 °C.

`CCOc1cc(Oc2ccc(C(F)(F)F)cc2Cl)ccc1[N+](=O)[O-]` showed a melting point of 85.3 °C.

As for `O=C1Cc2cc(S(=O)(=O)Cl)ccc2N1`, the melting point turned out to be 160 °C. Compound `O=C1/C(=N\Nc2cc(-c3ccccc3)n[nH]2)C(C(F)(F)F)=NN1c1ccccc1` displayed a melting point of 280 °C. `CCOC(=O)C(C#N)=NNc1ccc(Cl)cc1` returned a melting point of 161 to 162 °C. In the case of `O=C(CNc1ccc(NCC(=O)c2ccccc2)cc1)c1ccccc1`, the melting point is 151 °C. In turn, `Oc1ccnc2ccc(C(F)(F)F)cc12` had a melting point of 265 to 268 °C. The compound `Ic1ccccc1Cn1cncn1` showed a melting point of 67 to 69 °C. Regarding `O=C(Cl)c1csc(-c2cccc(Cl)c2Cl)n1`, the melting point was in the range of 108 to 111 °C. The value for `Brc1ccc(Oc2ccc(Br)c(Br)c2Br)c(Br)c1` was 119 to 121 °C; that for `CCC(C)c1ccccc1` (configuration not stated) was -75 °C. In the case of `OC1CCc2ccccc2C1` (configuration not stated), the melting point came out at 15.5 °C. Turning to `CC(=O)OCC(=O)c1ccccc1`, the melting point was 49 °C. Compound `COc1ccc(NC=C2C(=O)NN=C2c2c(O)c3ccccc3n(C)c2=O)cc1` registered a melting point of 281 °C. For `Cc1ccc(C(=O)O)cc1F`, the melting point was in the range of 170 to 175 °C. As for `NNC(=O)C(F)(F)F`, the melting point was in the range of 111 to 115 °C. As for `CCCOC1CCC2(C)C(CCC3C2CCC2(C)C(OCCC)CCC32)C1` (configuration not stated), the melting point is 112 to 135 °C. `Cc1cccc(NC(=O)C(F)(F)F)c1C(=O)O` returned a melting point of 168 to 169 °C. The value for `C1=CC2c3ccccc3C1C21CC1` was 43 °C; that for `Nc1ccc2nsnc2c1` was 112 to 114 °C. With `CC12CCCC1C1CCC3CC(O)CCC3(C)C1CC2` (configuration not stated), the melting point was determined as 148 °C. `O=C(c1cccc2ccccc12)C(Br)c1ccccc1` (configuration not stated) had a melting point of 64 °C. As for `Ic1ccc(I)c(I)c1I`, the melting point came out at 136 °C. With `O=C(O)c1cccc2c1OCCO2`, the melting point was 189 to 191 °C. In the case of `CNC(=O)c1cc(C)cc(Cl)c1NC(=O)c1cc(Br)nn1-c1ncccc1Cl` it was 209 °C. For `O=C(O)CCNC(=O)OCC1c2ccccc2-c2ccccc21`, the melting point was in the range of 144 to 148 °C. Regarding `O=[N+]([O-])c1cccnc1Oc1ccc(F)cc1`, the melting point lay within 98 to 99 °C. The value for `CCOC(=O)c1cnc(C(F)(F)F)nc1Cl` was 36 to 37 °C. The value for `CCCCCCCCCCCCC(C)O` (configuration not stated) was 34 °C; that for `Cc1ccc(C)c2c1COC2=O` was 88 °C; that for `O=C(O)C1CC(=O)N(Cc2ccc(C(F)(F)F)cc2)C1` (configuration not stated) was 128 to 130 °C.

`Brc1ccc(Oc2cccc(Br)c2)cc1` registered a melting point of less than 20 °C. On to `Nc1nc(-c2ccc3c(c2)Cc2ccccc2-3)cs1`, for which the melting point lay within 261 to 264 °C. Take `O=[N+]([O-])c1ccc(C(Br)C(Br)c2cccc3ccccc23)c([N+](=O)[O-])c1` (configuration not stated): the melting point worked out at 161 °C. `CCC(C)(O)C(=O)O` (configuration not stated) displayed a melting point of 74 °C.

In turn, `O=C1c2ccccc2C(=C2c3ccccc3C(=O)c3ccccc32)c2ccccc21` displayed a melting point of 300 °C.

`O=C1c2ccccc2C(=O)c2c1ccc1ccccc21` showed a melting point of 170 °C.
